The values that follow come from ChEMBL document CHEMBL1201862, “PubChem BioAssay data set” (2004).

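Following 48 hours of exposure in 96-well plates, responses at five concentrations were used to interpolate endpoints linearly. At the GI50, growth is halved.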 Calls of active or inactive are those of the source. Rule as the data show it: active = GI50 up to about 1.1 µM and inactive = higher.

Among the test systems are KM-20L2; RXF 631; M19-MEL; XF498; DMS-273; SNB-78; DMS-114; DLD-1; HOP-18.
What all share (experiment): NCI anticancer screen, dose series, 48 h

As to `N#CC(C#N)=C(C(C#N)C#N)C(C#N)C#N`, the GI50 in the experiment on KM-20L2, in the experiment on RXF 631, with M19-MEL, in the experiment with XF498, in the experiment on DMS-273 and with SNB-78 was > 100 µM (inactive) throughout. Moreover, the GI50 in the experiment on DMS-114 and in the experiment with DLD-1 was > 100 µM (inactive) throughout.

As for `Cc1ccccc1C(C#N)C(=O)C(=O)Nc1nc([N+](=O)[O-])cs1` (stereo unspecified), the GI50 with KM-20L2, with RXF 631, in the experiment with M19-MEL, with XF498, with SNB-78 and with DMS-114 was > 100 µM (inactive) throughout. Also, the GI50 with DLD-1 and in the experiment on HOP-18 was > 100 µM (inactive) each time.

As to `ClC(Cl)=C1C(=C(Cl)Cl)C(Cl)(Cl)C1(Cl)Cl`, the GI50 is 4.41 µM (inactive) in the experiment on KM-20L2; 3.21 µM (inactive) with RXF 631; 2.72 µM (inactive) with M19-MEL; 9.2 µM (inactive) in the experiment with XF498; 2.64 µM (inactive) in the experiment with DMS-273; 2.34 µM (inactive) with SNB-78. In addition, the GI50 in the experiment with DMS-114 was 0.748 µM (active); in the experiment with DLD-1 it was 1.22 µM (inactive); in the experiment on HOP-18, 5.9 µM (inactive).

`CC1=CCCC(OC(N)=O)C1` (stereo unspecified): the GI50 with KM-20L2, in the experiment with RXF 631, in the experiment with M19-MEL, in the experiment on XF498, with DMS-273 and with SNB-78 was > 100 µM (inactive) each time. The GI50 in the experiment on DLD-1 and in the experiment with HOP-18 was > 100 µM (inactive) in each case.

Turning to `CC(C)(C)C(=O)Nc1cccc2oc(-c3ccccc3)cc12`, the GI50 is > 100 µM (inactive) in the experiment on KM-20L2; 47 µM (inactive) in the experiment on RXF 631; > 100 µM (inactive) with M19-MEL; > 100 µM (inactive) in the experiment on DMS-273; 14.1 µM (inactive) in the experiment with SNB-78; > 100 µM (inactive) in the experiment with DMS-114. The GI50 in the experiment with DLD-1 and in the experiment on HOP-18 was > 100 µM (inactive) in each case.

For `FC(F)(F)c1ccccc1/C=N/C12CC3CC(CC(C3)C1)C2`, the GI50 in the experiment with KM-20L2, in the experiment on M19-MEL, with XF498, with DMS-273, in the experiment on SNB-78 and in the experiment with DMS-114 was > 100 µM (inactive) in each case.

Regarding `COc1ccc(/C=C(\Cl)c2ccc(OC)c(OC)c2)cc1OC`, the GI50 in the experiment with KM-20L2, in the experiment with M19-MEL, in the experiment on DMS-273, in the experiment on DMS-114 and in the experiment on DLD-1 was > 100 µM (inactive) each time.

In the case of `CS(=O)(=O)c1ccc(-c2cc(-c3ccc(S(C)(=O)=O)cc3)[n+](-c3cc(-c4ccc(S(C)(=O)=O)cc4)c([O-])c(-c4ccc(S(C)(=O)=O)cc4)c3)c(-c3ccc(S(C)(=O)=O)cc3)c2)cc1`, the GI50 in the experiment on KM-20L2, in the experiment on RXF 631, with M19-MEL, with DMS-273, with SNB-78 and in the experiment with DMS-114 was > 100 µM (inactive) in each case. For the same compound, the GI50 in the experiment with DLD-1 and in the experiment on HOP-18 was > 100 µM (inactive) in each case.

In the case of `NC(=S)N/N=C1/CN(c2ccc(Cl)c(Cl)c2)CC(=O)C1c1nc2ccccc2s1` (stereo unspecified), the GI50 is > 100 µM (inactive) in the experiment with KM-20L2; > 100 µM (inactive) with M19-MEL; > 100 µM (inactive) in the experiment on XF498; > 100 µM (inactive) with DMS-273; > 100 µM (inactive) in the experiment on SNB-78; 51.8 µM (inactive) with DMS-114. Moreover, the GI50 in the experiment with DLD-1 was > 100 µM (inactive).

In the case of `CSc1nc(NC2OCC(OC(C)=O)C(OC(C)=O)C2OC(C)=O)c(/N=C\C=N\c2c(NC3OCC(OC(C)=O)C(OC(C)=O)C3OC(C)=O)nc(SC)[nH]c2=O)c(=O)[nH]1` (stereo unspecified), the GI50 was > 100 µM (inactive) in the experiment on KM-20L2; 74 µM (inactive) in the experiment with RXF 631; > 100 µM (inactive) in the experiment on M19-MEL; > 100 µM (inactive) with DMS-273; > 94.6 µM (inactive) in the experiment with SNB-78; > 100 µM (inactive) in the experiment on DMS-114. Besides, the GI50 in the experiment on DLD-1 and in the experiment with HOP-18 was > 100 µM (inactive) each time.

`COC(=O)CCC12CCC(=O)C1[C@@H](C(=O)OC)C[C@H]2C(=O)OC` (stereo partly specified): the GI50 in the experiment with KM-20L2, in the experiment on RXF 631, in the experiment with M19-MEL, in the experiment on XF498, with DMS-273 and in the experiment on SNB-78 was > 100 µM (inactive) throughout. For the same compound, the GI50 with DMS-114, in the experiment on DLD-1 and with HOP-18 was > 100 µM (inactive) each time.

Regarding `O=S1(=O)c2cc(S(=O)(=O)n3ccnc3)ccc2NC2=NCCCN21`, the GI50 is 22.3 µM (inactive) with KM-20L2; 35.3 µM (inactive) in the experiment with M19-MEL; 22.1 µM (inactive) in the experiment on DMS-114; 28.1 µM (inactive) in the experiment on DLD-1; 42.2 µM (inactive) in the experiment with HOP-18.

Consider `O=S(=O)(c1ccccc1)N1N=C2c3ccccc3CCC[C@H]2C1c1ccccc1` (stereo partly specified), for which the GI50 in the experiment on KM-20L2, in the experiment on M19-MEL, in the experiment on XF498, in the experiment on DMS-273, in the experiment with SNB-78 and in the experiment on DMS-114 was > 100 µM (inactive) in each case. Moreover, the GI50 with DLD-1 and in the experiment with HOP-18 was > 100 µM (inactive) each time.

Take `O=C(O)C1(C(=O)O)CC1`: the GI50 in the experiment on KM-20L2, with RXF 631, in the experiment with M19-MEL, with XF498, in the experiment on DMS-273 and in the experiment on SNB-78 was > 100 µM (inactive) throughout. Also, the GI50 in the experiment with DMS-114, with DLD-1 and in the experiment with HOP-18 was > 100 µM (inactive) throughout.

Consider `COc1cccc(N2C(=O)/C(=C/c3ccc(N(CCC#N)CCC#N)cc3)N=C2c2cc([N+](=O)[O-])ccc2Cl)c1`, for which the GI50 in the experiment on KM-20L2 was 97.9 µM (inactive); with RXF 631, > 100 µM (inactive); in the experiment on DMS-273, 38.2 µM (inactive); in the experiment with SNB-78, > 100 µM (inactive); with DMS-114, > 100 µM (inactive); in the experiment with DLD-1, 60 µM (inactive). For the same compound, the GI50 in the experiment with HOP-18 was > 100 µM (inactive).

Turning to `C#CCN(N=O)C(=O)ON1C(=O)CCC1=O`, the GI50 in the experiment with KM-20L2, in the experiment with M19-MEL, with DMS-273, in the experiment on SNB-78, in the experiment on DMS-114 and in the experiment with DLD-1 was > 100 µM (inactive) in each case. The GI50 in the experiment with HOP-18 was > 100 µM (inactive).

`O=C1Nc2ccc(Cl)c(I)c2C1=O`: the GI50 in the experiment with KM-20L2 is 19.7 µM (inactive); in the experiment with M19-MEL, 11.7 µM (inactive); in the experiment on XF498 it was 18.3 µM (inactive); in the experiment on DMS-273 it was 16.5 µM (inactive); in the experiment on DMS-114, 17.5 µM (inactive); in the experiment with DLD-1 it was 16.9 µM (inactive).

Turning to `CCOC(=O)C1C2CCC(C2)C1(CCl)C(=O)OCC` (stereo unspecified), the GI50 in the experiment on KM-20L2, in the experiment on RXF 631, in the experiment on M19-MEL, with DMS-273, with DMS-114 and in the experiment on HOP-18 was > 100 µM (inactive) throughout.

For the compound `Cc1nc2cc(Nc3ccccc3C(=O)O)ccc2s1`, the GI50 is > 100 µM (inactive) with KM-20L2; > 100 µM (inactive) with M19-MEL; > 100 µM (inactive) with DMS-273; > 100 µM (inactive) in the experiment on DMS-114; > 100 µM (inactive) with DLD-1; 88.9 µM (inactive) in the experiment on HOP-18.

As for `Oc1ccc(O)c(-n2cccn2)c1-n1cccn1`, the GI50 in the experiment on KM-20L2 was > 100 µM (inactive); in the experiment with M19-MEL, 35.8 µM (inactive); in the experiment on XF498 it was > 100 µM (inactive); in the experiment on DMS-273, > 100 µM (inactive); with SNB-78, > 100 µM (inactive); with DMS-114, > 100 µM (inactive). The GI50 with DLD-1 is > 100 µM (inactive).

Turning to `COC1=CC(=O)C(Br)=CC1=O`, the GI50 was 33.3 µM (inactive) in the experiment with KM-20L2; 31.6 µM (inactive) in the experiment on RXF 631; 17.7 µM (inactive) in the experiment on M19-MEL; 16.9 µM (inactive) in the experiment on XF498; > 10 µM (inactive) in the experiment on DMS-273; > 10 µM (inactive) with SNB-78. In addition, the GI50 in the experiment with DMS-114 was 20.5 µM (inactive); with DLD-1 it was 32.3 µM (inactive).

In the case of `C=CC(C)(C)[C@@]12CC3C(=O)N[C@@H](Cc4ccccc4)C(=O)N3[C@@H]1N(C(C)=O)c1ccccc12` (stereo partly specified), the GI50 in the experiment on KM-20L2 is > 100 µM (inactive); in the experiment with RXF 631, 58.7 µM (inactive); in the experiment on M19-MEL, 87.5 µM (inactive); with XF498, > 100 µM (inactive); in the experiment on DMS-273, 61.7 µM (inactive); in the experiment on SNB-78 it was > 100 µM (inactive). The GI50 in the experiment with DMS-114 is 75.3 µM (inactive); with DLD-1, 66.2 µM (inactive); in the experiment on HOP-18 it was 64 µM (inactive).

On to `CCOC(=O)C[C@@]12CCCN[C@]1(C)CCc1ccccc12`, for which the GI50 in the experiment on KM-20L2, in the experiment with M19-MEL, with XF498, in the experiment with SNB-78, in the experiment with DLD-1 and in the experiment with HOP-18 was > 100 µM (inactive) in each case.

For the compound `CCN(CC)CCSc1c2ccccc2nc2c(OC)ccc(OC)c12`, the GI50 was 3.39 µM (inactive) with KM-20L2; 2.93 µM (inactive) in the experiment with RXF 631; 8 µM (inactive) in the experiment with M19-MEL; 2.42 µM (inactive) in the experiment with XF498; 5.08 µM (inactive) with DMS-273; 5.31 µM (inactive) with SNB-78. Besides, the GI50 with DMS-114 is 1.63 µM (inactive); in the experiment on DLD-1 it was 1.99 µM (inactive).

Regarding `CC1=C(C#N)C(=O)CC(c2ccc(Cl)cc2)N(C)N1` (stereo unspecified), the GI50 is > 100 µM (inactive) in the experiment with XF498; > 100 µM (inactive) in the experiment with SNB-78; > 100 µM (inactive) in the experiment with DMS-114; > 100 µM (inactive) in the experiment with DLD-1; 24.4 µM (inactive) in the experiment on HOP-18.
